# According to PubChem BioAssay AID1919013 (Molecular Pharmacology Branch, DTP, NCI, 2023):
# “And” between values parts separate entries of the source, which are not always exact repeats. Equal values may be shown once.
# Tested on: LG0703-F498-PDC complex spheroid growth
# Assay: Anticancer human tumor LG0703-F498-PDC patient-derived lung adenocarcinoma cell line growth inhibition [AhR]
# Conditions: for viability, T/C: stronger effect = lower value
# Procedure, shortened: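 Complex tumor spheroids co-cultured with HUVEC and human MSC stroma; AhR antagonists tested in combination with standard-of-care and investigational agents. Top concentration at or near clinical Cmax (else 10 microM), half-log dilutions; growth expressed as percent test/control.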
# [1] = curve of first compound, second compound 0.1 µM
# [2] = curve of first compound, second compound 0.316 µM
# [3] = curve of first compound, second compound 1 µM
# [4] = curve of first compound, second compound 3.16 µM
# [5] = curve of first compound, second compound 10 µM
# [6] = second compound 0.1 µM, first compound 0.0316 µM
# [7] = second compound 0.1 µM, first compound 0.1 µM
# [8] = second compound 0.1 µM, first compound 0.316 µM
# [9] = second compound 0.1 µM, first compound 1 µM
# [10] = second compound 0.1 µM, first compound 3.16 µM
# [11] = second compound 0.1 µM, first compound 10 µM
# [12] = second compound 0.316 µM, first compound 0.0316 µM
# [13] = second compound 0.316 µM, first compound 0.1 µM
# [14] = second compound 0.316 µM, first compound 0.316 µM
# [15] = second compound 0.316 µM, first compound 1 µM
# [16] = second compound 0.316 µM, first compound 3.16 µM
# [17] = second compound 0.316 µM, first compound 10 µM
# [18] = second compound 1 µM, first compound 0.0316 µM
# [19] = second compound 1 µM, first compound 0.1 µM
# [20] = second compound 1 µM, first compound 0.316 µM
# [21] = second compound 1 µM, first compound 1 µM
# [22] = second compound 1 µM, first compound 3.16 µM
# [23] = second compound 1 µM, first compound 10 µM
# [24] = second compound 3.16 µM, first compound 0.0316 µM
# [25] = second compound 3.16 µM, first compound 0.1 µM
# [26] = second compound 3.16 µM, first compound 0.316 µM
# [27] = second compound 3.16 µM, first compound 1 µM
# [28] = second compound 3.16 µM, first compound 3.16 µM
# [29] = second compound 3.16 µM, first compound 10 µM
# [30] = second compound 10 µM, first compound 0.0316 µM
# [31] = second compound 10 µM, first compound 0.1 µM
# [32] = second compound 10 µM, first compound 0.316 µM
# [33] = second compound 10 µM, first compound 1 µM
# [34] = second compound 10 µM, first compound 3.16 µM
# [35] = second compound 10 µM, first compound 10 µM
# 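Further: luminescence taken as a proxy for viable cell amount.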
# 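Wherever viability, T/C is given: percent of DMSO vehicle control where 100% means growth equal to vehicle.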
smiles,measurement,setting,value
Nc1ncn(C2CC(O)C(CO)S2)c(=O)n1 (stereo unspecified) + Cc1cncc(-c2nc(NCCc3c[nH]c4ccccc34)c3ncn(C(C)C)c3n2)c1,IC50,[1],> 0.3 µM
same,IC50,[2],> 0.3 µM
same,IC50,[3],> 0.3 µM
same,IC50,[4],< 0.000949 µM
same,IC50,[5],< 0.000949 µM
same,"viability, T/C","second compound 0.1 µM, first compound 0.000949 µM",107%
same,"viability, T/C","second compound 0.1 µM, first compound 0.003 µM",109%
same,"viability, T/C","second compound 0.1 µM, first compound 0.00949 µM",91.9%
same,"viability, T/C","second compound 0.1 µM, first compound 0.03 µM",98.4%
same,"viability, T/C","second compound 0.1 µM, first compound 0.0949 µM",104%
same,"viability, T/C","second compound 0.1 µM, first compound 0.3 µM",105%
same,"viability, T/C","second compound 0.316 µM, first compound 0.000949 µM",117%
same,"viability, T/C","second compound 0.316 µM, first compound 0.003 µM",107%
same,"viability, T/C","second compound 0.316 µM, first compound 0.00949 µM",108%
same,"viability, T/C","second compound 0.316 µM, first compound 0.03 µM",115%
same,"viability, T/C","second compound 0.316 µM, first compound 0.0949 µM",109%
same,"viability, T/C","second compound 0.316 µM, first compound 0.3 µM",99.1%
same,"viability, T/C","second compound 1 µM, first compound 0.000949 µM",87.3%
same,"viability, T/C","second compound 1 µM, first compound 0.003 µM",89.1%
same,"viability, T/C","second compound 1 µM, first compound 0.00949 µM",78.2%
same,"viability, T/C","second compound 1 µM, first compound 0.03 µM",86.3%
same,"viability, T/C","second compound 1 µM, first compound 0.0949 µM",94.4%
same,"viability, T/C","second compound 1 µM, first compound 0.3 µM",103%
same,"viability, T/C","second compound 3.16 µM, first compound 0.000949 µM",3.25%
same,"viability, T/C","second compound 3.16 µM, first compound 0.003 µM",3.89%
same,"viability, T/C","second compound 3.16 µM, first compound 0.00949 µM",4.63%
same,"viability, T/C","second compound 3.16 µM, first compound 0.03 µM",5.24%
same,"viability, T/C","second compound 3.16 µM, first compound 0.0949 µM",2.89%
same,"viability, T/C","second compound 3.16 µM, first compound 0.3 µM",4.14%
same,"viability, T/C","second compound 10 µM, first compound 0.000949 µM",1.24%
same,"viability, T/C","second compound 10 µM, first compound 0.003 µM",0.8%
same,"viability, T/C","second compound 10 µM, first compound 0.00949 µM",1.81%
same,"viability, T/C","second compound 10 µM, first compound 0.03 µM",1.01%
same,"viability, T/C","second compound 10 µM, first compound 0.0949 µM",1.6%
same,"viability, T/C","second compound 10 µM, first compound 0.3 µM",1.59%
CCN(c1cc(-c2ccc(CN3CCOCC3)cc2)cc(C(=O)NCc2c(C)cc(C)[nH]c2=O)c1C)C1CCOCC1,"viability, T/C",compound 0.00949 µM,102% and 110% and 103%
same,"viability, T/C",compound 0.03 µM,111% and 109% and 112%
same,"viability, T/C",compound 0.0949 µM,103% and 98.8% and 101%
same,"viability, T/C",compound 0.3 µM,99.3% and 99% and 107%
same,"viability, T/C",compound 0.949 µM,122% and 101% and 121%
same,"viability, T/C",compound 3 µM,106% and 110% and 113%
same,IC50,curve of compound,> 3 µM
COc1ccc([C@@H](O)c2cc(-c3ncnc4cc(N5CCOCC5)ccc34)c(F)cc2Cl)nn1 + Cc1ccccc1N=Nc1ccc(NC(=O)c2ccnn2C)c(C)c1,IC50,[1],4.59 µM
same,IC50,[2],2.87 µM
same,IC50,[3],3.92 µM
same,IC50,[4],2.55 µM
same,IC50,[5],1.9 µM
same,"viability, T/C",[6],93.9%
same,"viability, T/C",[7],93.8%
same,"viability, T/C",[8],88.3%
same,"viability, T/C",[9],75.7%
same,"viability, T/C",[10],61.2%
same,"viability, T/C",[11],29%
same,"viability, T/C",[12],83.3%
same,"viability, T/C",[13],101%
same,"viability, T/C",[14],91.1%
same,"viability, T/C",[15],75%
same,"viability, T/C",[16],48.5%
same,"viability, T/C",[17],28.1%
same,"viability, T/C",[18],87.3%
same,"viability, T/C",[19],99.2%
same,"viability, T/C",[20],86%
same,"viability, T/C",[21],79%
same,"viability, T/C",[22],55%
same,"viability, T/C",[23],28.5%
same,"viability, T/C",[24],89.8%
same,"viability, T/C",[25],83.9%
same,"viability, T/C",[26],78%
same,"viability, T/C",[27],68.1%
same,"viability, T/C",[28],45.2%
same,"viability, T/C",[29],23.8%
same,"viability, T/C",[30],75.5%
same,"viability, T/C",[31],93.6%
same,"viability, T/C",[32],80.8%
same,"viability, T/C",[33],57.9%
same,"viability, T/C",[34],42.5%
same,"viability, T/C",[35],15.6%
COc1cccc2c1C(=O)c1c(O)c3c(c(O)c1C2=O)CC(O)(C(=O)CO)CC3OC1CC(N)C(O)C(C)O1 (stereo unspecified) + Cc1cncc(-c2nc(NCCc3c[nH]c4ccccc34)c3ncn(C(C)C)c3n2)c1,IC50,[1],0.571 µM
same,IC50,[2],0.454 µM
same,IC50,[3],0.394 µM
same,IC50,[4],< 0.0316 µM
same,IC50,[5],< 0.0316 µM
same,"viability, T/C",[6],76.6%
same,"viability, T/C",[7],74.6%
same,"viability, T/C",[8],64%
same,"viability, T/C",[9],36.8%
same,"viability, T/C",[10],5.61%
same,"viability, T/C",[11],0.77%
same,"viability, T/C",[12],79%
same,"viability, T/C",[13],77.8%
same,"viability, T/C",[14],58.3%
same,"viability, T/C",[15],29.8%
same,"viability, T/C",[16],3.48%
same,"viability, T/C",[17],0.76%
same,"viability, T/C",[18],84.2%
same,"viability, T/C",[19],79.9%
same,"viability, T/C",[20],53.7%
same,"viability, T/C",[21],27.1%
same,"viability, T/C",[22],1.11%
same,"viability, T/C",[23],0.75%
same,"viability, T/C",[24],41.6%
same,"viability, T/C",[25],44.3%
same,"viability, T/C",[26],39.5%
same,"viability, T/C",[27],15.8%
same,"viability, T/C",[28],0.78%
same,"viability, T/C",[29],0.47%
same,"viability, T/C",[30],2.11%
same,"viability, T/C",[31],2.97%
same,"viability, T/C",[32],4.27%
same,"viability, T/C",[33],0.39%
same,"viability, T/C",[34],0.31%
same,"viability, T/C",[35],0.58%
CCc1c2c(nc3ccc(O)cc13)-c1cc3c(c(=O)n1C2)COC(=O)[C@]3(O)CC,"viability, T/C",compound 0.000949 µM,95.1% and 92.3% and 101%
same,"viability, T/C",compound 0.003 µM,87% and 101% and 106%
same,"viability, T/C",compound 0.00949 µM,95.9% and 86.3% and 92.1%
same,"viability, T/C",compound 0.03 µM,62.3% and 66% and 69.1%
same,"viability, T/C",compound 0.0949 µM,47.3% and 57% and 58.6%
same,"viability, T/C",compound 0.3 µM,30.2% and 32.5% and 34.4%
same,IC50,curve of compound,0.0674 µM and 0.111 µM and 0.123 µM
COc1cc(C2c3cc4c(cc3C(OC3OC5COC(C)OC5C(O)C3O)C3COC(=O)C23)OCO4)cc(OC)c1O (stereo unspecified) + Cc1ccccc1N=Nc1ccc(NC(=O)c2ccnn2C)c(C)c1,IC50,[1],> 10 µM
same,IC50,[2],> 10 µM
same,IC50,[3],> 10 µM
same,IC50,[4],> 10 µM
same,IC50,[5],> 10 µM
same,"viability, T/C",[6],94.8%
same,"viability, T/C",[7],103%
same,"viability, T/C",[8],86.2%
same,"viability, T/C",[9],95.2%
same,"viability, T/C",[10],91.3%
same,"viability, T/C",[11],72.1%
same,"viability, T/C",[12],96.2%
same,"viability, T/C",[13],93.5%
same,"viability, T/C",[14],106%
same,"viability, T/C",[15],79.5%
same,"viability, T/C",[16],68.4%
same,"viability, T/C",[17],59.3%
same,"viability, T/C",[18],79.2%
same,"viability, T/C",[19],104%
same,"viability, T/C",[20],99.4%
same,"viability, T/C",[21],79.8%
same,"viability, T/C",[22],65.2%
same,"viability, T/C",[23],62.7%
same,"viability, T/C",[24],85.5%
same,"viability, T/C",[25],94%
same,"viability, T/C",[26],93.5%
same,"viability, T/C",[27],80.2%
same,"viability, T/C",[28],74.2%
same,"viability, T/C",[29],59.6%
same,"viability, T/C",[30],77%
same,"viability, T/C",[31],96.5%
same,"viability, T/C",[32],93.5%
same,"viability, T/C",[33],73.5%
same,"viability, T/C",[34],81.4%
same,"viability, T/C",[35],70.6%
Nc1ncn(C2CC(O)C(CO)S2)c(=O)n1 (stereo unspecified),"viability, T/C",compound 0.000949 µM,103% and 105% and 108%
same,"viability, T/C",compound 0.003 µM,92.8% and 98.3% and 109%
same,"viability, T/C",compound 0.00949 µM,95.4% and 103% and 105%
same,"viability, T/C",compound 0.03 µM,99.9% and 97.8% and 99.8%
same,"viability, T/C",compound 0.0949 µM,113% (2×) and 107%
same,"viability, T/C",compound 0.3 µM,97.1% and 96.6% and 98.7%
same,IC50,curve of compound,> 0.3 µM
